The results in this text go back to PMC10813862, “Gαi2 Protein Inhibition Blocks Chemotherapy- and Anti-Androgen-Induced Prostate Cancer Cell Migration” (Cancers, 2024).

Several values for one entry are separate records, joined by “and”; a condition that tells them apart may be missing. Equal values may be shown once.

Data set [1] deals with PC3 cells. As to the kind of experiment: transwell migration assay, PC3 cells. To be noted: for effect on PC3 cell migration (migration index): compound alone, concentration range 0.1 to 100 μM, 5 h, compared with 14; for PC3 cell migration in combination with SAHA or docetaxel: Gαi2 inhibitor at 20 μM, in combination with either SAHA or docetaxel. In kind it is cell-based, human. As to the method:
(§1) In vitro transwell migration assays were conducted as described previously. Briefly, the outside of the transwell inserts (BD Biosciences, San Jose, CA, USA) were coated with 50 µL of rat tail collagen (50 μg/mL; BD Biosciences, San Jose, CA, USA) overnight at 4 °C. The next day, 50 μL of the aforementioned rat tail collagen was added for 1 h at room temperature into the transwell inserts to coat the inside of the membranes. DU145, PC3 and LNCaP cells were trypsinized and suspended at the appropriate density (3 × 10^5 cells/insert for DU145 and PC3, and 5 × 10^5 cells/insert for LNCaP) in MEM or RPMI containing 0.2% BSA (Sigma-Aldrich, St. Louis, MO, USA). Chemoattractant solution, used as the positive control, was made by diluting the epidermal growth factor (EGF) (10 ng/mL) into MEM (PC3 and DU145) or RPMI (LNCaP) supplemented with 0.2% BSA. Media containing 0.2% BSA served as a control. Control and EGF solutions (400 μL) were added into the wells of a 24-well plate. Aliquots of 100 μL of cell suspensions, treated with or without the different compounds at several concentrations, were loaded into the transwell inserts, and the plates were incubated at 37 °C for 5 h (DU145 and PC3) or 24 h (LNCaP). The cells inside the transwell inserts were removed by cotton swabs, and the cleaned inserts were fixed with 350 μL of 4% paraformaldehyde (pH 7.5) for 20 min at room temperature. Cells that had migrated to the outside of the transwell insert membrane were stained with 3 ng/mL of DAPI solution (Thermo Fisher Scientific, Eugene, OR, USA), and images of five non-overlapping fields were captured using an Axiovert 200M, Carl Zeiss (Thornwood, NY, USA) microscope. The number of stained nuclei were determined with automatic counting using image analysis software (ZEN 2012 (blue edition, Version 1.1.1.0); Carl Zeiss Microscopy GmbH, Oberkochen, Germany). The results were expressed as a migration index defined as the average number of cells per field for test substance/the average number of cells per field for the medium control.

Data set [2] deals with LNCaP cells. Nature of the data set: MTS viability, LNCaP cells. Type of data set: cell-based. To be noted: Homo sapiens, 72 h, n=3. How it is done:
(§2) Figure S1A. Effects of compounds 3- 7, 10, 12, 13 and 15 on the viability of LNCaP,
(§3) MDA-MD-231, MCF-7 and Vero cells. The cells are incubated with the drugs for 72 h
(§4) and viability evaluated with MTS. NI = IC50 greater than 100 μM. n=3
(§5) Compound LNCaP (µM) MDA-MB-231 (µM) MCF-7 (µM) Vero (µM)

Data set [3] concerns MDA-MB-231 cells. As to the kind of experiment: MTS viability, MDA-MB-231 cells. In kind it is cell-based. To be noted: Homo sapiens, 72 h, n=3. As to the method:
as §2, §3, §4, §5

The test system of data set [4] is MCF-7 cells. Nature of the data set: MTS viability, MCF-7 cells. In kind it is cell-based. The settings on record: Homo sapiens, MCF7, 72 h, n=3. How it is done:
as §2, §3, §4, §5

The test system of data set [5] is Vero cells. As to the kind of experiment: MTS viability, Vero cells. To be noted: Chlorocebus sabaeus, 72 h, n=3. Type of data set: cell-based. As to the method:
as §2, §3, §4, §5

The nature of data set [6]: stability in human plasma. Type of data set: in vitro ADME. To be noted: read-out: Plasma t1/2, Human. The text has this:
Table 1 Stability of compounds 6, 7 and 10 in human and mouse plasma and liver microsomes. | column: Plasma (t1/2 = Min) / Human

The nature of data set [7]: stability in mouse plasma. In kind it is in vitro ADME. To be noted: read-out: Plasma t1/2, Mouse. The source says: Table 1 Stability of compounds 6, 7 and 10 in human and mouse plasma and liver microsomes. | column: Plasma (t1/2 = Min) / Mouse
A short description of data set [8]: stability in human liver microsomes. The settings on record: read-out: Microsome t1/2, Human. Type of data set: in vitro ADME. The source says: Table 1 Stability of compounds 6, 7 and 10 in human and mouse plasma and liver microsomes. | column: Microsome (t1/2 = Min) / Human
(Liver microsomes are a subcellular fraction often used to study metabolism.)

Data set [9] is described as follows: stability in mouse liver microsomes. Type of data set: in vitro ADME. To be noted: read-out: Microsome t1/2, Mouse. The text has this:
Table 1 Stability of compounds 6, 7 and 10 in human and mouse plasma and liver microsomes. | column: Microsome (t1/2 = Min) / Mouse

Data set [10] has as its system LNCaP cells. Nature of the data set: transwell migration assay, LNCaP cells. Type of data set: cell-based, human. To be noted: 24 h; for effect on LNCaP cell migration (migration index): drug alone at several concentrations; for concentration of maximum induction of LNCaP cell migration: drug alone. How it is done:
as §1

The test system of data set [11] is DU145 cells. As to the kind of experiment: transwell migration assay, DU145 cells. Type of data set: cell-based, human. To be noted: drug alone, AR-negative cells. How it is done:
as §1

The subject of data set [12] is Gαi2 protein. Nature of the data set: Western blot of Gαi2 protein levels in LNCaP cells. Type of data set: cell-based, human. To be noted: 24 h; enzalutamide 2.5 μM, bicalutamide 2.5 μM, SBI-I-19 2 μM, SAHA 4 μM. How it is done: Docetaxel, a taxoid anti-cancer agent, was purchased from Millipore-Sigma and dissolved in DMSO at a starting concentration of 100 μM. SAHA, a commercially available FDA-approved HDACi, was purchased from Sigma-Aldrich (St. Louis, MO, USA) and dissolved in DMSO at a starting concentration of 100 mM. SBI-I-19, an HDAC inhibitor conjugated with anti-androgen, was dissolved in DMSO at a starting concentration of 50 mM. The anti-androgen drugs enzalutamide and bicalutamide were purchased from Selleckchem (Houston, TX, USA) and Sigma-Aldrich, respectively. Anti-androgens were prepared at a stock concentration of 100 mM (enzalutamide) and 10 mM (bicalutamide) in DMSO. The Gαi2 inhibitor (compound 14) was diluted in DMSO at a stock concentration of 100 mM, as previously described. All drugs used in the study were then diluted in the culture media to the final concentrations used in various assays. To determine the effects of specific treatments on the levels of Gαi2 protein, LNCaP and PC3 cells (10^6 cells) were cultured overnight in 10 cm^2 culture dishes. The cells were then treated with anti-androgens and other agents for 24 h and the total cell lysates were collected for Western blot analyses.
Western blot analyses were performed as described previously. Briefly, cell lysates were mixed with Laemmeli’s buffer (62.5 mM Tris, pH 6.8, 2% sodium dodecyl sulfate, 5% β–mercaptoethanol and 10% glycerol). Samples (30–35 µg proteins) were separated on 10% SDS-PAGE gels and transferred to polyvinylidene difluoride (PVDF) membranes (Millipore Corp., Bedford, MA, USA). After blocking the membranes with 5% fat-free milk in TBST (50 mM Tris, pH 7.5, containing 0.15 M NaCl, and 0.05% Tween 20) for 1 h at room temperature, the membranes were incubated with specific primary antibodies at appropriate dilutions (1:5000 for Gαi2; 1:3000 for α-tubulin) overnight at 4 °C. After washing, the blots were incubated with appropriate secondary antibodies. The blots were then developed in Millipore Luminata Forte (EMD Millipore) for 5 min and visualized using a BioRad ChemiDoc Imaging System, according to the manufacturer’s instructions. The density of specific protein bands was determined using ImageJ 1.53 K image analyses software.
Background: A western blot detects proteins with antibodies after separation by electrophoresis.

One may read the IC50 as the concentration that inhibits the measured activity by half. Low values mean inhibition by little substance, high ones a need for much substance. For `Cn1c(/C=N/c2ccc(O)cc2)cc2ccccc21` [Compound 3], the “effect on PC3 cell migration (migration index)” value in data set [1] is “concentration dependent reduction of PC3 cell migration, but less efficiently relative to 14”. The IC50 in [2], in data set [3], in data set [4] and in data set [5] was above 100 µM throughout.

Take `CSc1ccc(/N=C(\C)c2cc3ccccc3n2C)cc1` [Compound 4]: the “effect on PC3 cell migration (migration index)” value in [1] is on record as “concentration dependent reduction of PC3 cell migration, but less efficiently relative to 14”. Besides, the IC50 in data set [2], in data set [3], in [4] and in data set [5] was above 100 µM in each case.

On to `Cn1c(CNc2ccc(O)cc2)cc2ccccc21` [Compound 5], for which the “effect on PC3 cell migration (migration index)” value in data set [1] is recorded as “comparable potency”. Moreover, the IC50 in data set [2], in data set [3], in data set [4] and in data set [5] was above 100 µM throughout.

As to `CC(Nc1ccc(O)cc1)c1cc2ccccc2n1C` (stereo not shown) [Compound 6], in data set [1], the “PC3 cell migration in combination with SAHA or docetaxel” value (shortened to “PC3 cell migration in combination”) is on record as “decreased significantly PC3 cell migration”. Further, the “effect on PC3 cell migration (migration index)” value in data set [1] is “more effective relative to 14”. The half-life in data set [6] was above 120 min; in data set [7], 27 min; in [8], 118 min; in [9], 47 min. The half-maximal inhibitory concentration (IC50) is 86.8 ± 10.8 µM in data set [2], 27.3 ± 4.8 µM in data set [3], 75.7 ± 5.3 µM in data set [4] and 32.4 ± 1.6 µM in [5].

As to `CSc1ccc(NC(C)c2cc3ccccc3n2C)cc1` (stereo not shown) [Compound 7], the “PC3 cell migration in combination” value in data set [1] is listed as “decreased significantly PC3 cell migration”. Further, the “effect on PC3 cell migration (migration index)” value in data set [1] is “more effective relative to 14”. In addition, the half-life is above 120 min in [6], above 120 min in data set [7], 45 min in data set [8] and below 10 min in data set [9]. Besides, the IC50 in data set [2] is 43.4 ± 3.9 µM; in data set [3] it was above 100 µM; in data set [4], above 100 µM; in data set [5], above 100 µM.

On to `CSc1ccc(OC(C)c2cc3ccccc3n2C)cc1` (stereo not shown) [Compound 10], for which the “PC3 cell migration in combination” value in [1] was “decreased significantly PC3 cell migration”. Also, the “effect on PC3 cell migration (migration index)” value in [1] is given as “less potent compared to 7”. Also, the half-life is above 120 min in data set [6], above 120 min in data set [7], 35 min in data set [8] and below 10 min in data set [9]. The IC50 in [2], in [3], in data set [4] and in data set [5] was above 100 µM each time.

Take `CC(Oc1ccc(S(C)(=O)=O)cc1)c1cc2ccccc2n1C` (stereo not shown) [Compound 12]: the “effect on PC3 cell migration (migration index)” value in data set [1] was “less effective”. Also, the concentration for half-maximal inhibition (IC50) in data set [2], in data set [3], in data set [4] and in [5] was above 100 µM throughout.

For the compound `CC(Oc1ccc([S+](C)[O-])cc1)c1cc2ccccc2n1C` (stereo not shown) [Compound 13], the “effect on PC3 cell migration (migration index)” value in data set [1] is “less effective”. In addition, the concentration for half-maximal inhibition (IC50) in data set [2], in data set [3], in [4] and in [5] was above 100 µM in each case.

With `CC(Oc1ccc(O)cc1)c1cc2ccccc2n1C` (stereo not shown) [Compound 15], the “effect on PC3 cell migration (migration index)” value in [1] is “did not inhibit the migration of PC3 cells at the maximum concentration tested”. For the same compound, the IC50 in [2], in data set [3], in [4] and in [5] was above 100 µM in each case.

Consider `O=C(CCCCCCC(=O)Nc1ccccc1)NO` [SAHA], for which the “effect of chemotherapeutic drugs on PC3 cell migration” value in data set [1] (drug alone, AR-negative cells) was “induced an increase in cell migration”. In data set [10], the “effect on LNCaP cell migration (migration index)” value was “induced a significant dose-dependent increase in cell migration”; the “concentration of maximum induction of LNCaP cell migration” value (“concentration” for short) was 0.5 µM and 1 µM. In addition, the “effect of chemotherapeutic drugs on DU145 cell migration” value (from here on “effect … on DU145 cell migration”) in data set [11] was “increased cell migration”. Moreover, in [12], the “levels of Gαi2 protein in LNCaP cells” value is “induced a reduction in the levels of Gαi2 protein”.

Consider `CC1(C)C(=O)N(c2ccc(C#N)c(C(F)(F)F)c2)C(=O)N1Cc1ccc(-c2cn(CCCCC(=O)NO)nn2)cc1` [SBI-I-19], for which, in [10], the “effect on LNCaP cell migration (migration index)” value is “induced a significant dose-dependent increase in cell migration”; the “concentration” value is 1 µM and 2 µM. Further, the “effect … on DU145 cell migration” value in data set [11] is given as “increased cell migration”. Moreover, in [12], the “levels of Gαi2 protein in LNCaP cells” value is “increased levels of Gαi2 protein”.

Consider `CC(O)(CS(=O)(=O)c1ccc(F)cc1)C(=O)Nc1ccc(C#N)c(C(F)(F)F)c1` (stereo not shown) [bicalutamide], for which, in [10], the “effect on LNCaP cell migration (migration index)” value is on record as “induced a dose-dependent increase in cell migration” and the “concentration” value was 2.5 µM. For the same compound, in [12], the “levels of Gαi2 protein in LNCaP cells” value was “increased levels of Gαi2 protein”.

Regarding `CNC(=O)c1ccc(N2C(=S)N(c3ccc(C#N)c(C(F)(F)F)c3)C(=O)C2(C)C)cc1F` [enzalutamide], in data set [10], the “effect on LNCaP cell migration (migration index)” value was “induced a dose-dependent increase in cell migration” and the “concentration” value was found to be 2.5 µM. Besides, in data set [11], the “effect … on DU145 cell migration” value is on record as “increased cell migration”. For the same compound, the “levels of Gαi2 protein in LNCaP cells” value in data set [12] is on record as “increased levels of Gαi2 protein”.
